Legend:
Experiment in all cases: KINOMEscan competition binding
Conditions in all cases: compound 10.0 µM
[1] = target: ACVR2B (human) (UniProt Q13705)
[2] = target: AXL (human) (UniProt P30530)
[3] = target: CAMK2A (human) (UniProt Q9UQM7)
[4] = target: CDK11B (human) (UniProt P21127)
[5] = target: CSNK1G3 (human) (UniProt Q9Y6M4)
[6] = target: EPHA5 (human) (UniProt P54756)
[7] = target: FER (human) (UniProt P16591)
[8] = target: FES (human) (UniProt P07332)
[9] = target: GSK3A (human) (UniProt P49840)
[10] = target: IKBKB (human) (UniProt O14920)
[11] = target: ITK (human) (UniProt Q08881)
[12] = target: JAK1 JH2 pseudokinase (human) (UniProt P23458)
Chain of JAK1 JH2 pseudokinase (human) (P23458 whole entry, looked up): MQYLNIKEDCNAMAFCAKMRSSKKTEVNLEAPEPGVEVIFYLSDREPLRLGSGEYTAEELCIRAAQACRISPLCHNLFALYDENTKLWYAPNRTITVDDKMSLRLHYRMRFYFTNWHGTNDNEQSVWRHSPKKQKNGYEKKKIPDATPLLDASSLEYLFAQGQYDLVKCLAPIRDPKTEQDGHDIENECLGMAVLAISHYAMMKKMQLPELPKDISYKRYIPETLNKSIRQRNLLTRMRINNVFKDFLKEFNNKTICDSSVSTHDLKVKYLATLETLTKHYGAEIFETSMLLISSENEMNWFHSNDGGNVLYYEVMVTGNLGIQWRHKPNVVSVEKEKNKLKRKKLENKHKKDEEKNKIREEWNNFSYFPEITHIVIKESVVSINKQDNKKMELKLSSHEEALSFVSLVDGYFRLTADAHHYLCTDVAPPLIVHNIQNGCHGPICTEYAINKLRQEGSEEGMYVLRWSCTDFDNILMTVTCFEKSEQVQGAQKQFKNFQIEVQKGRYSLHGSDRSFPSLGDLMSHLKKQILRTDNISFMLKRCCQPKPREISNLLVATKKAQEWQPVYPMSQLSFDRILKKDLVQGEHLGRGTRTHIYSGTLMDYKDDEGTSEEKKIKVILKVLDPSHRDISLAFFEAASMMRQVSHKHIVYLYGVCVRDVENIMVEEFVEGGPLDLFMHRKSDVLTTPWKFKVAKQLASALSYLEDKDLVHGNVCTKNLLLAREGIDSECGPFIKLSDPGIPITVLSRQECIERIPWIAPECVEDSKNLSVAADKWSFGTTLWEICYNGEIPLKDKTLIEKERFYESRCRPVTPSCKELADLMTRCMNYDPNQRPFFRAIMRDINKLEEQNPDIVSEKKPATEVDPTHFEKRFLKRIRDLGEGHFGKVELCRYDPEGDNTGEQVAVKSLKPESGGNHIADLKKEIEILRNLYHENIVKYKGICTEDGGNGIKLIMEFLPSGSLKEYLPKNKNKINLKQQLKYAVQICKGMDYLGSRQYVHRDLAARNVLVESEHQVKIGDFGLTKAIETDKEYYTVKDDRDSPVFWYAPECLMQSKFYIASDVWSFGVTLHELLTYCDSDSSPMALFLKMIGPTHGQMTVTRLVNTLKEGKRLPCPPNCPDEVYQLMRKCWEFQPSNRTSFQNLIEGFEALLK

[13] = test system: KIT (human), P10721 [D816V]
[14] = target: LCK (human) (UniProt P06239)
Chain of LCK (human) (P06239 whole entry, looked up): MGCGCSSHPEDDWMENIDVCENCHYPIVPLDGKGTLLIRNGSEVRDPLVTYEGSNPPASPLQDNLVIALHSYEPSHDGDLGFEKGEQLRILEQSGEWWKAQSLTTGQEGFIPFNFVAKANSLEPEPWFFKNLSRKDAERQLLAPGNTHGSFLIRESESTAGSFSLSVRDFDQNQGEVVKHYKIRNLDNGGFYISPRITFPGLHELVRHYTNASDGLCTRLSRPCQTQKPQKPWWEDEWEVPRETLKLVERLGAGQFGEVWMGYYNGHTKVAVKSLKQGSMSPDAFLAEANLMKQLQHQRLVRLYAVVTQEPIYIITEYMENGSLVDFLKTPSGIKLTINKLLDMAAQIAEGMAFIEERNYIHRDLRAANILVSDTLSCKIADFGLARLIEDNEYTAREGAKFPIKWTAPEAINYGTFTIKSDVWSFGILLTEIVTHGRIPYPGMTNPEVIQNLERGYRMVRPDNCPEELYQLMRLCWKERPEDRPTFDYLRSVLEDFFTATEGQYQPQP

[15] = target: LIMK2 (human) (UniProt P53671)
[16] = target: MAP2K3 (human) (UniProt P46734)
[17] = target: MAP3K12 (human) (UniProt Q12852)
[18] = target: MAP3K3 (human) (UniProt Q99759)
Chain of MAP3K3 (human) (Q99759 whole entry, looked up): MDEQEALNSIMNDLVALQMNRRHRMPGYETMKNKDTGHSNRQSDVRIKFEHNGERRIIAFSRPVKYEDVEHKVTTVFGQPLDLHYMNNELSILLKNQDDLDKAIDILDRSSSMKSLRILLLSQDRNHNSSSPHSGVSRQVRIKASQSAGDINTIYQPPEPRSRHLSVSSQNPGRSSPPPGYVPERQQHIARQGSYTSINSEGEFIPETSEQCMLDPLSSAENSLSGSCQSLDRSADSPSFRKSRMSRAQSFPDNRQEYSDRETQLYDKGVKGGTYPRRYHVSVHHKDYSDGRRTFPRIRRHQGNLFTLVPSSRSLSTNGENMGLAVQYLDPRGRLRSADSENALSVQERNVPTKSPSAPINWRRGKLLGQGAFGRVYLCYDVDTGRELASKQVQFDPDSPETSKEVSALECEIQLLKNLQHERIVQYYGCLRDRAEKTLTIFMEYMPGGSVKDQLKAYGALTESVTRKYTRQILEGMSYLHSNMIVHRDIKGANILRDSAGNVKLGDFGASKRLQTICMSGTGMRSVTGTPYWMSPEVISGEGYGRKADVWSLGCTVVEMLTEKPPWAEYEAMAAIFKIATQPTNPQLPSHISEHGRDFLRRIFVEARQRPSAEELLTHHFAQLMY

[19] = target: MAPK15 (human) (UniProt Q8TD08)
[20] = target: MAPK6 (human) (UniProt Q16659)
[21] = target: MARK4 (human) (UniProt Q96L34)
[22] = target: MST4 (human) (UniProt Q9P289)
[23] = target: MYLK4 (human) (UniProt Q86YV6)
[24] = target: NEK5 (human) (UniProt Q6P3R8)
[25] = target: NUAK2 (human) (UniProt Q9H093)
Chain of NUAK2 (human) (Q9H093 whole entry, looked up): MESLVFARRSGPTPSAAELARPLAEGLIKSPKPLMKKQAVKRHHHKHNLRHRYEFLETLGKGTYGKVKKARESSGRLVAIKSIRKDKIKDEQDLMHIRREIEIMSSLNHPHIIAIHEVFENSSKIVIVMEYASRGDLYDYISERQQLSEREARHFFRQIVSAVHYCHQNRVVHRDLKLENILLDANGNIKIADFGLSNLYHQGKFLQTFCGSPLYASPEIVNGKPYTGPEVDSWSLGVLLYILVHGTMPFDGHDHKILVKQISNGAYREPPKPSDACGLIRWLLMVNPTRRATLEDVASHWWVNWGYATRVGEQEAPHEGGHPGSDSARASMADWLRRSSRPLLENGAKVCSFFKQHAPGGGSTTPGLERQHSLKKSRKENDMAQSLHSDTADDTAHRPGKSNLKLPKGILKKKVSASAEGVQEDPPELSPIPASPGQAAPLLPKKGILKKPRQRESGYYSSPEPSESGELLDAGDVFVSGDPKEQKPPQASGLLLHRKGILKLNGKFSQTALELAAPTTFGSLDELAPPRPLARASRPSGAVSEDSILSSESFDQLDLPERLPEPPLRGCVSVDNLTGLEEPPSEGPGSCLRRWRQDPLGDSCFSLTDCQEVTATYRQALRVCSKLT

[26] = target: PAK2 (human) (UniProt Q13177)
Chain of PAK2 (human) (Q13177 whole entry, looked up): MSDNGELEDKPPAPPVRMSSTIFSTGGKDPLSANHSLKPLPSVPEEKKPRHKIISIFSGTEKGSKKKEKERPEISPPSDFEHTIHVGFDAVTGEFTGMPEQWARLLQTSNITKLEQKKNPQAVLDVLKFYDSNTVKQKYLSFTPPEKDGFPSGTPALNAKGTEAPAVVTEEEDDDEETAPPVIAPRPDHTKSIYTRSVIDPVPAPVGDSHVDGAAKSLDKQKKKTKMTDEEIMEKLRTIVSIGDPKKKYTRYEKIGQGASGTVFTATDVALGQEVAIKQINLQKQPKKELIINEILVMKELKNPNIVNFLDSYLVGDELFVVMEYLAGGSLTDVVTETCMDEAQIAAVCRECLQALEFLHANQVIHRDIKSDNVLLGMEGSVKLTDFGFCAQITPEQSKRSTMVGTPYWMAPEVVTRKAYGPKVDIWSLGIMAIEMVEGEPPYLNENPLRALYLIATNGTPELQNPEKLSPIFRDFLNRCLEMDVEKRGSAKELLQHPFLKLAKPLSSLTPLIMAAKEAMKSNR

[27] = target: PDGFRB (human) (UniProt P09619)
[28] = target: PIK3CD (human) (UniProt O00329)
[29] = target: PIP5K1A (human) (UniProt Q99755)
[30] = target: PRKD1 (human) (UniProt Q15139)
[31] = target: PRKG2 (human) (UniProt Q13237)
[32] = target: ROCK2 (human) (UniProt O75116)
[33] = target: ROS1 (human) (UniProt P08922)
[34] = target: RPS6KA5 KD2 (human) (UniProt O75582)
[35] = target: SIK1 (human) (UniProt P57059)
Chain of SIK1 (human) (P57059 whole entry, looked up): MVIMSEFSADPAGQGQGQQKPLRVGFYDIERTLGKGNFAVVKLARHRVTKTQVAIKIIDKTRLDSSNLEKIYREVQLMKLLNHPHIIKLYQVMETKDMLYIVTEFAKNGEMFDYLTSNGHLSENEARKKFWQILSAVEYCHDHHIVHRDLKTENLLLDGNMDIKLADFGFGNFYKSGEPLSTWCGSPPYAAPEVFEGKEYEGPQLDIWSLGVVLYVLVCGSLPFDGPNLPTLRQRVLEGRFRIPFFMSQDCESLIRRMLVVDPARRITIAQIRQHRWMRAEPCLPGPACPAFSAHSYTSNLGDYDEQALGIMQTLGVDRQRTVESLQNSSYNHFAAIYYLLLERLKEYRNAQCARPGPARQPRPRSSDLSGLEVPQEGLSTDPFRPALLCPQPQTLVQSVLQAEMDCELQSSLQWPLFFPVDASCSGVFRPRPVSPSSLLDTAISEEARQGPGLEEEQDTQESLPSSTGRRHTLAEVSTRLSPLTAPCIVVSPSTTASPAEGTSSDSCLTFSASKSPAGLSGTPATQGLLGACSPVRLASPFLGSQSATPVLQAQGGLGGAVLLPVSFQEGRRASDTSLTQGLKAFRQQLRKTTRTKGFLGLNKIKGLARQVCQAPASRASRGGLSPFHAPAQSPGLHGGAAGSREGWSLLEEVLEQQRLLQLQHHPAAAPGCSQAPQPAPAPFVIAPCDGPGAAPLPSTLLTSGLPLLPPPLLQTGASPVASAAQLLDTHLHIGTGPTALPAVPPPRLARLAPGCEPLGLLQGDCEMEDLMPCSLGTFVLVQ

[36] = target: TEC (human) (UniProt P42680)
Chain of TEC (human) (P42680 whole entry, looked up): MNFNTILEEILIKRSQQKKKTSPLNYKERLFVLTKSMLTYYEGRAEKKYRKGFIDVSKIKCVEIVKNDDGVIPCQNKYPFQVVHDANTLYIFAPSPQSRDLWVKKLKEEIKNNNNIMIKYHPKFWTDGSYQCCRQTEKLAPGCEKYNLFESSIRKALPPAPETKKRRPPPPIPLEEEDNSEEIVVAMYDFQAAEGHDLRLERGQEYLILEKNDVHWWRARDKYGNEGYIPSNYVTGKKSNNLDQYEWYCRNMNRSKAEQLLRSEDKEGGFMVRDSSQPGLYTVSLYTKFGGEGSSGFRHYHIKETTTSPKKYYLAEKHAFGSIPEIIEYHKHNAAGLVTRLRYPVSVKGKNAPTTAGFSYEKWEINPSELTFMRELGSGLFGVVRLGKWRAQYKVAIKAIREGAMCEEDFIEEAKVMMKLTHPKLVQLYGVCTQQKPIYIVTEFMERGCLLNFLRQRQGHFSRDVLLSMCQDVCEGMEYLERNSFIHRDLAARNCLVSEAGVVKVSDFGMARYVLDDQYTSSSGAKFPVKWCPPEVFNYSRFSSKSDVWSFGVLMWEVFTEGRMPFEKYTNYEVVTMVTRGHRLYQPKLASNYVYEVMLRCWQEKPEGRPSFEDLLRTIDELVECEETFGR

[37] = target: TEK (human) (UniProt Q02763)
[38] = target: TESK1 (human) (UniProt Q15569)
[39] = target: TGFBR2 (human) (UniProt P37173)
[40] = target: TXK (human) (UniProt P42681)

Row | kinase still bound, per cent of control [1] [%] | kinase still bound, per cent of control [2] [%] | kinase still bound, per cent of control [3] [%] | kinase still bound, per cent of control [4] [%] | kinase still bound, per cent of control [5] [%] | kinase still bound, per cent of control [6] [%] | kinase still bound, per cent of control [7] [%] | kinase still bound, per cent of control [8] [%] | kinase still bound, per cent of control [9] [%] | kinase still bound, per cent of control [10] [%] | kinase still bound, per cent of control [11] [%] | kinase still bound, per cent of control [12] [%] | kinase still bound, per cent of control [13] [%] | kinase still bound, per cent of control [14] [%] | kinase still bound, per cent of control [15] [%] | kinase still bound, per cent of control [16] [%] | kinase still bound, per cent of control [17] [%] | kinase still bound, per cent of control [18] [%] | kinase still bound, per cent of control [20] [%] | SMILES | kinase still bound, per cent of control [19] [%] | also measured
1 | 100 | 100 | 100 | 100 | 100 | 1.1 | 100 | 100 | 100 | 100 | 100 | 100 | 100 | 1.9 | 100 | 100 | 100 | 100 | 100 | Cc1ccc(C(=O)Nc2cccc(C(F)(F)F)c2)cc1Nc1cncc(C(N)=O)c1 | 100 | kinase still bound, per cent of control [21]: 100%; kinase still bound, per cent of control [22]: 100%; kinase still bound, per cent of control [23]: 100%; kinase still bound, per cent of control [24]: 100%; kinase still bound, per cent of control [25]: 100%; kinase still bound, per cent of control [26]: 100%; kinase still bound, per cent of control [27]: 0.05%; kinase still bound, per cent of control [28]: 100%; kinase still bound, per cent of control [29]: 100%; kinase still bound, per cent of control [30]: 100%; kinase still bound, per cent of control [31]: 100%; kinase still bound, per cent of control [32]: 100%; kinase still bound, per cent of control [33]: 100%; kinase still bound, per cent of control [34]: 100%; kinase still bound, per cent of control [35]: 100%; kinase still bound, per cent of control [36]: 100%; kinase still bound, per cent of control [37]: 100%; kinase still bound, per cent of control [38]: 100%; kinase still bound, per cent of control [39]: 100%; kinase still bound, per cent of control [40]: 100%
2 | 100 | 100 | 100 | 100 | 100 | 100 | 11 | 11 | 100 | 100 | 0.55 | 100 | 13 | 100 | 100 | 100 | 100 | 100 | 100 | C=CC(=O)Nc1cccc(Oc2nc(Nc3ccc(N4CCN(C)CC4)cc3OC)ncc2Cl)c1 | 100 | kinase still bound, per cent of control [21]: 16%; kinase still bound, per cent of control [22]: 100%; kinase still bound, per cent of control [23]: 24%; kinase still bound, per cent of control [24]: 100%; kinase still bound, per cent of control [25]: 0.3%; kinase still bound, per cent of control [26]: 100%; kinase still bound, per cent of control [27]: 11%; kinase still bound, per cent of control [28]: 100%; kinase still bound, per cent of control [29]: 11%; kinase still bound, per cent of control [30]: 12%; kinase still bound, per cent of control [31]: 100%; kinase still bound, per cent of control [32]: 27%; kinase still bound, per cent of control [33]: 5%; kinase still bound, per cent of control [34]: 100%; kinase still bound, per cent of control [35]: 100%; kinase still bound, per cent of control [36]: 6.6%; kinase still bound, per cent of control [37]: 100%; kinase still bound, per cent of control [38]: 100%; kinase still bound, per cent of control [39]: 100%; kinase still bound, per cent of control [40]: 16%

Row | SMILES | kinase still bound, per cent of control [1] [%] | kinase still bound, per cent of control [2] [%] | kinase still bound, per cent of control [3] [%] | kinase still bound, per cent of control [4] [%] | kinase still bound, per cent of control [5] [%] | kinase still bound, per cent of control [6] [%] | kinase still bound, per cent of control [7] [%] | kinase still bound, per cent of control [8] [%] | kinase still bound, per cent of control [9] [%] | kinase still bound, per cent of control [10] [%] | kinase still bound, per cent of control [11] [%] | kinase still bound, per cent of control [12] [%] | kinase still bound, per cent of control [13] [%] | kinase still bound, per cent of control [14] [%] | kinase still bound, per cent of control [15] [%] | kinase still bound, per cent of control [16] [%] | kinase still bound, per cent of control [17] [%] | kinase still bound, per cent of control [18] [%] | kinase still bound, per cent of control [20] [%] | kinase still bound, per cent of control [19] [%] | also measured
3 | Nc1ccc(-c2ccc3ncc4ccc(=O)n(-c5cccc(C(F)(F)F)c5)c4c3c2)cn1 | 97 | 74 | 83 | 100 | 63 | 100 | 95 | 100 | 100 | 89 | 100 | 13 | 61 | 100 | 89 | 66 | 100 | 84 | 62 | 18 | kinase still bound, per cent of control [21]: 100%; kinase still bound, per cent of control [22]: 73%; kinase still bound, per cent of control [23]: 97%; kinase still bound, per cent of control [24]: 94%; kinase still bound, per cent of control [25]: 46%; kinase still bound, per cent of control [26]: 100%; kinase still bound, per cent of control [27]: 34%; kinase still bound, per cent of control [28]: 14%; kinase still bound, per cent of control [29]: 78%; kinase still bound, per cent of control [30]: 87%; kinase still bound, per cent of control [31]: 89%; kinase still bound, per cent of control [32]: 81%; kinase still bound, per cent of control [33]: 82%; kinase still bound, per cent of control [34]: 100%; kinase still bound, per cent of control [35]: 79%; kinase still bound, per cent of control [36]: 100%; kinase still bound, per cent of control [37]: 100%; kinase still bound, per cent of control [38]: 94%; kinase still bound, per cent of control [39]: 84%; kinase still bound, per cent of control [40]: 100%
